One may read the viability as a read-out of living cells in per cent, often relative to untreated cells.

One data set can be described thus: in vitro. The conditions noted are these: human, hela cells, % viability.
In the case of `CC1(C)Cc2c(c(-c3ccco3)nc3n[nH]c(N)c23)CO1` [CBK009252], the viability at 28.5 h, 10 µM is 84.3%.
For `COC(=O)c1cnc(Sc2ccc(Cl)cc2)nc1C(F)(F)F` [CBK009299], the viability at 28.5 h, 10 µM was determined as 95.9%.
Still for that read-out and setting: the result for `CCCCC(=O)NC(Nc1cc(C)ccn1)(C(F)(F)F)C(F)(F)F` [CBK009331] reads 79.6%; that for `N#Cc1c(O)nsc1Nc1ccc(Cl)cc1` [CBK009446], 94.9%.
As for `Cc1nn(Cc2nnn(CC(=O)O)n2)c(C)c1Br` [CBK009457], the viability at 28.5 h, 10 µM was found to be 101%.
As for `COC(=O)c1sc(N2CCCC2)c(S(=O)(=O)C(C)C)c1N` [CBK009463], the viability at 28.5 h, 10 µM stood at 87.9%.
On to `C=C1S/C(=N\c2cc(Cl)cc(Cl)c2)NC1(CC)CC` [CBK009484], for which the viability at 28.5 h, 10 µM came to 109%.
For the molecule `CCOC(=O)C1=CC2C(=NC3=C2CCCC3)C=C1` (stereo not drawn) [CBK009652], the viability at 28.5 h, 10 µM stood at 74.6%.
As to `CCCC1C2C=CC(C2)C1/C=N/O` (stereo not drawn) [CBK009671], the viability at 28.5 h, 10 µM was determined as 83.4%.
For the molecule `CCc1oc2ccc(Cl)cc2c1C(=O)CCN1CCCCC1` [CBK009675C], the viability at 28.5 h, 10 µM is 99.1%.
For the molecule `CN1CCCc2c1nc1ccc(Br)cc1c2N` [CBK009692G], the viability at 28.5 h, 10 µM is 58.9%.
For `NC(=S)N/N=C/c1c[nH]nc1-c1ccccc1` [CBK009705], the viability at 28.5 h, 10 µM was determined as 96.5%.
Same read-out and setting: the result for `CC(C)(C)/N=C1/SCC(C)(/C=N\O)S1` (stereo not drawn) [CBK009726] reads 98.7%.
As to `CN(C)CCOC(=O)c1ccc2[nH]c3c(c2c1)CSCC3` [CBK009731C], the viability at 28.5 h, 10 µM is 95.8%.
Regarding `NC(=O)c1ccc(C#Cc2ccccc2)o1` [CBK009809], the viability at 28.5 h, 10 µM worked out at 94.8%.
The same measure, in the same setting: the result for `Nc1nnc(C(=O)c2cc(Br)ccc2N)s1` [CBK009811] reads 102%; that for `C[N+](C)(C)C1=C([O-])c2ccccc2C1=O` [CBK009824], 92.7%; that for `Nc1nonc1-c1nc2ccccc2o1` [CBK009829], 91%.
With `CCCCNCCOC1CCC[C@@H]1Cl` (stereo partly drawn) [CBK009839], the viability at 28.5 h, 10 µM is 97.7%.
With `CCN(CC)CCOC(=O)C1(c2ccccc2)CCOc2ccccc21` (stereo not drawn) [CBK009850C], the viability at 28.5 h, 10 µM was 95.6%.
As for `CC(=O)Nc1cc(NC(C)=O)c(O)c(C(=O)O)c1` [CBK009871], the viability at 28.5 h, 10 µM was 88.6%.
Turning to `COc1ccccc1C(CN)C1CCCCC1` (stereo not drawn) [CBK009878], the viability at 28.5 h, 10 µM was 99.7%.
For the molecule `CC1(C)CC(=O)N(C2CCCCC2)C(=O)C1C#N` (stereo not drawn) [CBK009894], the viability at 28.5 h, 10 µM was found to be 107%.
As to `COc1ccccc1CC(c1ccccc1)C1CN(C)CCO1` (stereo not drawn) [CBK009925C], the viability at 28.5 h, 10 µM is 116%.
In the case of `O=C(Oc1n[nH]c2ccccc12)c1ccc(Cl)cc1` [CBK009976], the viability at 28.5 h, 10 µM worked out at 100%.
For the molecule `N#CC(c1ccc(Br)cc1)n1ccnc1` (stereo not drawn) [CBK009985], the viability at 28.5 h, 10 µM was determined as 85.6%.
Take `CN(C)CCC(O)(c1ccccc1)c1cc2c(cc1Cl)CCC2` (stereo not drawn) [CBK010000C]: the viability at 28.5 h, 10 µM was 99.5%.
In the case of `CCn1cnc2c1CCC(CN/C(=N/C(=O)c1ccccc1)NC)C2` (stereo not drawn) [CBK010036], the viability at 28.5 h, 10 µM amounted to 103%.
As for `CCn1cnc2c1CC/C(=N\O)C2` [CBK010044], the viability at 28.5 h, 10 µM amounted to 80.6%.
On to `CC(C)NC(=S)N1CC[C@@]2(NC(N)=O)N=C(N)O[C@H]2C1` [CBK010049], for which the viability at 28.5 h, 10 µM is 93.1%.
For the molecule `CCN(CC)CCn1c(-c2ccccc2)c(OCCO)c2ccccc2c1=O` [CBK010078], the viability at 28.5 h, 10 µM is 96.9%.
For `CCOc1ccc(N)cc1S(N)(=O)=O` [CBK010112], the viability at 28.5 h, 10 µM came to 93.2%.
Same read-out and setting: the result for `CN(C)CCC1OC(=O)N(c2ccccc2)C1=O` (stereo not drawn) [CBK010134C] reads 107%; that for `Nc1ccc2c(c1)/C(=C/c1c[nH]c3ncccc13)C(=O)N2` [CBK010155T], 103%.
On to `CC(=O)C1=C(C)N2C(=Nc3ccccc3C2(C)C)S1` [CBK010180C], for which the viability at 28.5 h, 10 µM came to 85.5%.
Turning to `CCCN[C@@H]1CCc2cc(CNC(=O)c3ccc(C#N)cc3)ccc2C1` [CBK010211C], the viability at 28.5 h, 10 µM was found to be 101%.
Consider `CC(=O)NCC1CC(c2ccc(C3=CCN(C(C)=O)CC3)cc2)=NO1` (stereo not drawn) [CBK010245], for which the viability at 28.5 h, 10 µM amounted to 86.8%.
On to `NC1OC(COC(=O)c2ccccc2)C(OC(=O)c2ccccc2)C1OC(=O)c1ccccc1` (stereo not drawn) [CBK010282], for which the viability at 28.5 h, 10 µM stood at 95.3%.
Regarding `NC12CC(=O)CC(CC(c3ccccc3)C1)C2` (stereo not drawn) [CBK010323C], the viability at 28.5 h, 10 µM is 114%.
As to `CCCCCCSc1ccc(C(=O)CCCN2CCOCC2)cc1` [CBK010344], the viability at 28.5 h, 10 µM was 116%.
With `COc1cccc(N2CCN(CCCOc3ccc(F)cc3)CC2)n1` [CBK010355F], the viability at 28.5 h, 10 µM was found to be 94.6%.
As for `CC1CCN(c2ccc(C(=O)CCCO)cc2)CC1` [CBK010358], the viability at 28.5 h, 10 µM is 91.8%.
Take `CC(=O)NCC1CC(N2CCSCC2)=NO1` (stereo not drawn) [CBK010367]: the viability at 28.5 h, 10 µM was determined as 85%.
The same measure, in the same setting: for `CC(=O)NCC1CC(c2ccc(OC(C)=O)c(Cl)n2)=NO1` (stereo not drawn) [CBK010396] the value was 88.8%; for `N#Cc1cn(Cc2ccco2)c(=O)[nH]c1=O` [CBK010407], 101%; for `COc1cc(C2=NS(=O)(=O)NC3=C2CCCC3)cc(OC)c1OC` [CBK010423], 90.3%.
As for `CN(C(=O)c1ccccc1)[C@]1(C)C2CC(C[C@@H]2O)C1(C)C` (stereo partly drawn) [CBK010498], the viability at 28.5 h, 10 µM came out at 102%.
With `CN(C)[C@H]1CCCC[C@@H]1OC(=O)c1ccc(C(F)(F)F)cc1` [CBK010550F], the viability at 28.5 h, 10 µM was 90.1%.
Still for that read-out and setting: for `C/C(=N\O)c1oc2ccccc2c(=O)c1O` [CBK010642] the value was 98.6%; for `C1=NC2C(COCc3ccccc3)CCC2N1c1ccccc1` (stereo not drawn) [CBK010679], 107%.
On to `CCN(CC)CCNC(=O)c1cc(=O)c2ccccc2o1` [CBK010691], for which the viability at 28.5 h, 10 µM is 114%.
The same measure, in the same setting: the result for `CCNc1cccnc1N1CCN(C(=O)CCC(=O)c2ccc(NS(C)(=O)=O)cc2)CC1` [CBK010701] reads 98.2%.
Turning to `COc1ccc2c(c1)c(C(NCc1cccc(C(F)(F)F)c1)C(N)=O)nn2Cc1ccccc1` (stereo not drawn) [CBK010715], the viability at 28.5 h, 10 µM came out at 100%.
Regarding `CC(C)NC(=S)NC(=O)C1CCC1` [CBK010718], the viability at 28.5 h, 10 µM came out at 86.2%.
The same measure, in the same setting: for `CCc1ccc(C(=O)c2ccccc2C(=O)O)cc1` [CBK010776] the value was 93.7%; for `CNc1ccc(OC(=O)c2ccco2)cc1` [CBK010779], 88.1%; for `Cc1c(C(=O)N2CCOCC2)sc2nc(-c3ccc(Cl)cc3)nn12` [CBK010863], 91.4%.
For `N#CC1CCC(CNC(=O)c2sc3ccccc3c2Cl)CC1` (stereo not drawn) [CBK010864], the viability at 28.5 h, 10 µM came to 106%.
For `Cc1cc(NC(=O)c2cc(Cl)sc2Cl)no1` [CBK010872], the viability at 28.5 h, 10 µM is 84.4%.
On the same count and under the same terms, for `O=C(O)CCCc1nc(-c2ccccn2)no1` [CBK010880] the value was 94.8%.
In the case of `COc1ccc2c(c1)CCC1CN(C)N=C21` (stereo not drawn) [CBK010890], the viability at 28.5 h, 10 µM is 100%.
For the molecule `NC(=O)c1ccsc1NC(=O)C(F)(F)F` [CBK010915], the viability at 28.5 h, 10 µM was 96.4%.
As to `O=C(O)CCCc1ccc2sc3ccccc3c2c1` [CBK010971], the viability at 28.5 h, 10 µM is 84.8%.
Turning to `Cn1c(Cc2nn(C)c(=O)c3ccccc23)nnc1SCC(=O)C(C)(C)C` [CBK010985], the viability at 28.5 h, 10 µM was 105%.
As to `CC12CCCC(=O)N1C(CO)C(c1ccccc1)O2` (stereo not drawn) [CBK011013], the viability at 28.5 h, 10 µM was 91.2%.
As to `CC(C)(C)C(=O)CSc1nnc(Cn2cnc(Cl)c2Cl)o1` [CBK011055], the viability at 28.5 h, 10 µM is 81.2%.
Regarding `Cn1nnnc1Sc1cc(=O)n(C)c(=O)n1C` [CBK011072], the viability at 28.5 h, 10 µM worked out at 114%.
As for `c1ccc(-c2nnc(Cn3cncn3)o2)cc1` [CBK011113], the viability at 28.5 h, 10 µM stood at 88%.
As for `COc1ccc(CN2C(=O)CS(=O)(=O)CC2=O)cc1OC` [CBK011127], the viability at 28.5 h, 10 µM is 86.4%.
Same read-out and setting: for `COc1nc(Cl)nc(Oc2ccc(F)cc2)n1` [CBK011279] the value was 122%; for `N#Cc1nccnc1N1CCN(Cc2ccc3c(c2)OCO3)CC1` [CBK011284], 83.3%.
Take `O=c1cc2ncc(-c3ccncc3)cn2[nH]1` [CBK011300]: the viability at 28.5 h, 10 µM amounted to 98.3%.
On to `COc1ccc2c(c1)N1CCCN=C1N2C` [CBK011358C], for which the viability at 28.5 h, 10 µM came out at 90.8%.
The same measure, in the same setting: the result for `CSCCC(C(=O)O)N1CNC(=S)NC1` (stereo not drawn) [CBK011382] reads 92.3%; that for `O=C1CCCCC1SCn1nnc2ccccc21` (stereo not drawn) [CBK011412], 94.8%.
Turning to `COc1cc(OC)c2c(c1)OCC1CON(C)C21` (stereo not drawn) [CBK011446], the viability at 28.5 h, 10 µM turned out to be 95.6%.
For the molecule `CNc1snc(N2CCOCC2)c1C#N` [CBK011453], the viability at 28.5 h, 10 µM was 93%.
Same read-out and setting: the result for `COc1ccc2c(c1OC)C(=O)N1C2SC(C)(C)C1C(=O)O` (stereo not drawn) [CBK011479] reads 98.9%.
For the molecule `O=C(NC1CCCCC1)C1CCC1` [CBK011511], the viability at 28.5 h, 10 µM came to 96.5%.
As for `CC(C)C[C@H]([C@@H]1C[C@@H](C(C)C)C(=O)O1)N1C(=O)c2ccccc2C1=O` [CBK011526], the viability at 28.5 h, 10 µM worked out at 93.9%.
On the same count and under the same terms, the result for `CCN(CC)Cc1nccn1-c1ccc([N+](=O)[O-])cc1C(=O)c1ccccc1Cl` [CBK011562F] reads 105%.
Same read-out and setting: the result for `COc1ccc(C2CNC(=O)C2)cc1OC1CCCC1` (stereo not drawn) [CBK011603] reads 86.5%.
As for `CCC(C)C(=O)O[C@H]1C[C@@H](C)C=C2C=C[C@H](C)[C@H](CC[C@@H]3C[C@@H](O)CC(=O)O3)[C@H]21` (stereo partly drawn) [CBK011646], the viability at 28.5 h, 10 µM worked out at 85.2%.
On to `O=C(O)Cc1ccc(-c2ccccc2)cc1` [CBK011660], for which the viability at 28.5 h, 10 µM stood at 104%.
With `O=c1[nH]c(=O)n(C2CC(O)C(CO)O2)cc1F` (stereo not drawn) [CBK011695], the viability at 28.5 h, 10 µM came to 49.6%.
The same measure, in the same setting: the result for `CCC(C(=O)O)c1ccc(-n2sc3ccccc3c2=O)cc1` (stereo not drawn) [CBK011773] reads 105%.

The same data set, now with this note: human, hela cells, % viability, bulk resorufin, single well.
As for `COc1cc(C2OCCNC2C)c(OC)cc1C` (stereo not drawn) [CBK010347C], the viability at 28.5 h, 10 µM came out at 90.7%.

These data come from paper PMC12040169 (PLOS Biology, 2025).
